According to patent US9822179B2, “Recombinant TNF ligand family member polypeptides with antibody binding domain and uses therefor” (UNIVERSITAT STUTTGART, priority 2011, dated 2017):
Where a SMILES comes first, the peptide text is derived from it. The star is where a group is joined. Cbz = O=C(OCc1ccccc1)*; CH2F = FC*

B1: SEQ ID NO: 104: single chain TRAIL, three copies of TRAIL 95-281 linked by (GGGS)2 linkers, N-terminal FLAG tag, no component B (protein)
chain: TSEETISTVQEKQQNISPLVRERGPQRVAAHITGTRGRSNTLSSPNSKNEKALGRKINSWESSRSGHSFLSNLHLRNGELVIHEKGFYYIYSQTYFRFQEEIKENTKNDKQMVQYIYKYTSYPDPILLMKSARNSCWSKDAEYGLYSIYQGGIFELKENDRIFVSVTNEHLIDMDHEASFFGAFLVGGGGSGGGSTSEETISTVQEKQQNISPLVRERGPQRVAAHITGTRGRSNTLSSPNSKNEKALGRKINSWESSRSGHSFLSNLHLRNGELVIHEKGFYYIYSQTYFRFQEEIKENTKNDKQMVQYIYKYTSYPDPILLMKSARNSCWSKDAEYGLYSIYQGGIFELKENDRIFVSVTNEHLIDMDHEASFFGAFLVGGGGSGGGSTSEETISTVQEKQQNISPLVRERGPQRVAAHITGTRGRSNTLSSPNSKNEKALGRKINSWESSRSGHSFLSNLHLRNGELVIHEKGFYYIYSQTYFRFQEEIKENTKNDKQMVQYIYKYTSYPDPILLMKSARNSCWSKDAEYGLYSIYQGGIFELKENDRIFVSVTNEHLIDMDHEASFFGAFLVG
modifications: scTRAIL fusion protein
notes: single chain TRAIL, three copies of TRAIL 95-281 linked by (GGGS)2 linkers, N-terminal FLAG tag, no component B
B2: KillerTRAIL: commercially available highly active TRAIL preparation (Enzo Lifesciences / Axxora) (protein, UniProt P50591 39-281, looked up)
extracellular domain: TNELKQMQDKYSKSGIACFLKEDDSYWDPNDEESMNSPCWQVKWQLRQLVRKMILRTSEETISTVQEKQQNISPLVRERGPQRVAAHITGTRGRSNTLSSPNSKNEKALGRKINSWESSRSGHSFLSNLHLRNGELVIHEKGFYYIYSQTYFRFQEEIKENTKNDKQMVQYIYKYTSYPDPILLMKSARNSCWSKDAEYGLYSIYQGGIFELKENDRIFVSVTNEHLIDMDHEASFFGAFLVG
modifications: extracellular domain

Columns and labels:
Colo205 cells = assay: Caspase dependence of cell death in Colo205 cells, MTT; format: cell-based; conditions: 25 ng/ml bortezomib, caspase inhibitors 20 μM, 16 h
Method: (§1) After 16 h, cell viability was determined using MTT staining (Colo 205) or crystal violet staining (Huh-7) and data were normalized using bortezomib-treated cells as control (mean SEM, n=3). (B) 1×10^4 Colo205 cells per well were grown in 96-well plates using medium with 0.1% FCS. […] (C) 1×10^4 Huh-7 cells per well were grown in 96-well plates and treated with 20 ng/ml bortezomib or with a combination of bortezomib and 10 μM zVADfmk.

[1] = test system: EGFR+ Huh-7 hepatocellular carcinoma cells; assay: EGFR-directed induction of cell death in Huh-7 cells, serial dilutions of protein, crystal violet; format: cell-based; conditions: 250 ng/ml bortezomib, caspase inhibitors 10 μM, 16 h
Method: as §1
After 16 h, cell viability was determined using crystal violet staining.
(§2) As a positive control, cells were killed with 0.25% Triton X-100. Cell death assays with Huh-7 and HepG2 cells were performed in the absence (FIG. 6, Jurkat cells) or presence of Bortezomib (FIG. 7, Huh-7: 250 ng/ml, FIG. 6, HepG2: 500 ng/ml, FIG. 18, Huh-7: 250 ng/ml), Selleck Chemicals, Houston, Tex.). Bortezomib was added 30 min prior incubation with the proapoptotic ligands to sensitize cells for the induction of cell death (FIGS. 6, 7). Alternatively, cells were preincubated for 30 min with the indicated concentrations of TRAIL fusion proteins followed by addition of serial dilutions of Bortezomib (FIG. 8). […] After 16 h incubation, cell viability was determined either by crystal violet staining (Huh-7, HepG2) or the MTT method (Jurkat) (Wuest et al., 2002). In the latter case a lysis buffer consisting of 15% SDS in DMF/H2O (1:1), pH 4.5 (with […]) acetic acid) was used.

Colo205 xenograft tumor = Colo205 xenograft tumor model
Method: Arrows, protein application; asterisks, bortezomib application; symbols, mean of tumor volumes 95% confidence interval (CI), n=12 tumors/treatment group.
8-week-old female NMRI nu/nu mice (Janvier) were injected s.c. with 3×10^6 Colo205 cells in 100 μl PBS at left and right dorsal sides. Treatment started 6 days after tumor cell inoculation when tumors reached about 100 mm^3. […] On day 1, 3, 5 and 7 of treatment, mice received additionally 5 μg bortezomib in 100 μl PBS i.p. three hours before protein injection. The control groups received 100 μl PBS or 5 μg bortezomib at the same time intervals. […] The Tukey's test was applied for statistics.

Jurkat cells = assay: Target-independent induction of cell death, Jurkat, MTT assay; format: cell-based; conditions: not sensitized; SEQ ID NO: 102 compared to KillerTRAIL
Method: (§3) Cell viability was determined using crystal violet staining. Results from four independent experiments are shown (mean±S.E.M.). (B) Jurkat cells (1×10^5/well) were used for a similar experiment as described in (A). Jurkat cells were not sensitized. Results from three independent experiments are shown (mean±S.E.M.). Viability of Jurkat cells was determined using the MTT assay.
as §2

[2] = test system: Huh-7 hepatocellular carcinoma cells; assay: Cell death in Huh-7 cells, constant protein concentration, serial dilutions of Bortezomib; format: cell-based; conditions: protein concentration of 1 nM and above
Method: Results from three independent experiments are shown (mean±S.E.M.).
as §2

[3] = test system: EGFR low/negative HepG2 cells; assay: Target-independent induction of cell death, HepG2, crystal violet; format: cell-based; conditions: comparator named in value
Method: as §3, §2

[4] = 8 daily i.p. injections of 0.45 nmol + bortezomib every second day

Row | Molecule | block of TRAIL fusion protein-induced cell death by inhibitor (Colo205 cells) | block of TRAIL fusion protein-induced cell death by inhibitor [1] | further results
1 | COC(=O)C[C@H](NC(=O)[C@H](C)NC(=O)[C@@H](NC(=O)OCc1ccccc1)C(C)C)C(=O)CF [zVADfmk] (Cbz-Val-Ala-Asp(OMe)-CH2F) | nearly complete block of cell death | nearly complete block of cell death | –
2 | CC(C)C[C@H](NC(=O)[C@H](Cc1ccccc1)NC(=O)c1cnccn1)B(O)O [Bortezomib] | – | – | effect on tumor growth (Colo205 xenograft tumor; bortezomib by itself, 5 μg i.p. on day 1, 3, 5 and 7): did not interfere with progressive tumor growth
3 | CN1C(=O)C(Cc2c[nH]c3ccccc23)NC1=S (stereo not drawn) [necrostatin-1] | failure of necrostatin-1 to prevent or reduce cell death | failure of necrostatin-1 to prevent or reduce cell death | –
4 | COC(=O)CC[C@H](NC(=O)[C@H](CC(=O)OC)NC(=O)OCc1ccccc1)C(=O)N[C@H](C(=O)N[C@@H](CC(=O)OC)C(=O)CF)C(C)C [zDEVDfmk] | nearly complete block of cell death | nearly complete block of cell death | –
5 | B1 | – | – | effect on tumor growth (Colo205 xenograft tumor; [4]): delayed tumor growth; regression of tumors (Colo205 xenograft tumor; [4]): did not induce regression of tumors; apoptosis-inducing activity on Jurkat cells (Jurkat cells): no reactivity; induction of apoptosis when sensitized with Bortezomib [2]: nearly equally efficient in induction of complete apoptosis
6 | B2 | – | – | bioactivity on target negative cells, comparison in words [3]: comparable with the activity of SEQ ID NO: 96
